Experimental data as given in BigSolDB 2.1.

CCOC(=O)C1(c2ccccc2)CCN(CCC(C#N)(c2ccccc2)c2ccccc2)CC1
solubility (mole fraction)
Conditions | in acetone | in acetonitrile | in ethanol | in isopropanol | in methanol | in water
293.15 K | 0.00426 | 0.00427 | 0.00169 | 0.000258 | 0.00598 | 8.6e-06
298.15 K | 0.00479 | 0.005 | 0.00198 | 0.000442 | 0.00791 | 1.19e-05
303.15 K | 0.00559 | 0.00601 | 0.0023 | 0.000627 | 0.0105 | 1.45e-05
308.15 K | 0.00608 | 0.00727 | 0.0027 | 0.000859 | 0.0123 | 1.96e-05
313.15 K | 0.00664 | 0.00919 | 0.00325 | 0.00108 | 0.0144 | 2.7e-05
318.15 K | 0.00776 | 0.0124 | 0.00432 | 0.00156 | 0.0184 | 3.28e-05
